Measured values from ChEMBL document CHEMBL1201862, “PubChem BioAssay data set” (2004).
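48-hour exposure; five concentrations; linearly interpolated endpoints. The concentration for 50% growth inhibition is given as GI50.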 Activity calls are given as the source filed them. Rule as the data show it: active = GI50 up to about 1.1 µM and inactive = higher.

What was measured:
Assay in all cases: NCI anticancer screen, dose series, 48 h
[1] = test system: 786-0
[2] = test system: A498
[3] = test system: CAKI-1
[4] = test system: CCRF-CEM
[5] = test system: COLO 205
[6] = test system: DU-145
[7] = test system: EKVX
[8] = test system: HCC 2998
[9] = test system: HL-60
[10] = test system: HT-29
[11] = test system: K562
[12] = test system: MCF7
[13] = test system: Malme-3M
[14] = test system: OVCAR-4
[15] = test system: OVCAR-5
[16] = test system: SF-268
[17] = test system: SK-MEL-2
[18] = test system: SNB-75
[19] = test system: TK-10
[20] = test system: UACC-257

In the case of O=C(O)CC1C(=O)OC2C3COC(=O)c4cc(O)c(O)c(O)c4-c4c(cc(O)c(O)c4O)C(=O)OC2C(OC(=O)c2cc(O)c(O)c4c2C1C(O)C(=O)O4)C(OC(=O)c1cc(O)c(O)c(O)c1)O3 (stereo not given), the GI50 [1] is reported as 18.5 µM (inactive), the GI50 [2] is reported as > 100 µM (inactive) and the GI50 [3] is reported as 17.3 µM (inactive). The GI50 [4] was 13.7 µM (inactive), the GI50 [5] was 35.1 µM (inactive) and the GI50 [6] was 36.4 µM (inactive). The GI50 [7] was 18 µM (inactive), the GI50 [8] was > 100 µM (inactive) and the GI50 [9] was 7.43 µM (inactive). For the same molecule, the GI50 [10] was 13.6 µM (inactive), the GI50 [11] was 36.4 µM (inactive) and the GI50 [12] was 16.9 µM (inactive). For the same molecule, the GI50 [13] was > 100 µM (inactive), the GI50 [14] was 37.9 µM (inactive) and the GI50 [15] was 13.5 µM (inactive). The GI50 [16] was 36.6 µM (inactive), the GI50 [17] was > 100 µM (inactive) and the GI50 [18] was 3.35 µM (inactive). The GI50 [19] was > 100 µM (inactive) and the GI50 [20] was 34.1 µM (inactive).

CCc1c(Cc2cccc3ccccc23)n2c(nc1=O)SCC2OCCO (stereo not given) was tested, and the GI50 [1] was > 100 µM (inactive), the GI50 [2] was > 100 µM (inactive) and the GI50 [3] was > 100 µM (inactive). For the same molecule, the GI50 [4] was 19.6 µM (inactive), the GI50 [5] was > 100 µM (inactive) and the GI50 [6] was 88.3 µM (inactive). For the same molecule, the GI50 [7] was 33.7 µM (inactive), the GI50 [8] was 64.1 µM (inactive) and the GI50 [9] was 36.9 µM (inactive). For the same molecule, the GI50 [10] was 55.3 µM (inactive), the GI50 [11] was 30.4 µM (inactive) and the GI50 [12] was 50.5 µM (inactive). The GI50 [13] was > 100 µM (inactive), the GI50 [14] was 41.5 µM (inactive) and the GI50 [15] was > 100 µM (inactive). For the same molecule, the GI50 [16] was 55.7 µM (inactive), the GI50 [17] was > 100 µM (inactive) and the GI50 [18] was > 100 µM (inactive). For the same molecule, the GI50 [19] was > 100 µM (inactive) and the GI50 [20] was > 100 µM (inactive).

In the case of CC(C)CNC(=O)c1c(NC(=O)c2ccccc2)sc2[nH]c(=O)n(-c3ccccc3)c(=O)c12, the GI50 [1] is reported as 16.8 µM (inactive), the GI50 [2] is reported as 27.5 µM (inactive) and the GI50 [3] is reported as > 42.1 µM (inactive). For the same molecule, the GI50 [4] was 40.5 µM (inactive), the GI50 [5] was > 100 µM (inactive) and the GI50 [6] was > 100 µM (inactive). The GI50 [7] was 70.6 µM (inactive), the GI50 [8] was > 100 µM (inactive) and the GI50 [9] was 68.9 µM (inactive). The GI50 [10] was > 100 µM (inactive), the GI50 [11] was 31 µM (inactive) and the GI50 [12] was > 100 µM (inactive). The GI50 [13] was > 82.8 µM (inactive), the GI50 [14] was > 64 µM (inactive) and the GI50 [15] was > 100 µM (inactive). For the same molecule, the GI50 [16] was 37.1 µM (inactive), the GI50 [17] was 27.5 µM (inactive) and the GI50 [18] was 17.8 µM (inactive). The GI50 [19] was 37.9 µM (inactive) and the GI50 [20] was > 100 µM (inactive).

For COc1ccc2nc(NC(=O)/C(C#N)=C/c3ccccc3)sc2c1, the GI50 [1] was 44.9 µM (inactive), the GI50 [2] was 37.3 µM (inactive) and the GI50 [3] was 31 µM (inactive). For the same molecule, the GI50 [4] was 14.1 µM (inactive), the GI50 [5] was 48.3 µM (inactive) and the GI50 [6] was > 52.6 µM (inactive). The GI50 [7] was 38.4 µM (inactive), the GI50 [8] was 44.3 µM (inactive) and the GI50 [9] was 9.35 µM (inactive). For the same molecule, the GI50 [10] was 46.7 µM (inactive), the GI50 [11] was 23.5 µM (inactive) and the GI50 [12] was 36.2 µM (inactive). The GI50 [13] was > 49 µM (inactive), the GI50 [14] was 37.6 µM (inactive) and the GI50 [15] was > 100 µM (inactive). For the same molecule, the GI50 [16] was > 56.5 µM (inactive), the GI50 [17] was > 100 µM (inactive) and the GI50 [18] was > 45.7 µM (inactive). The GI50 [19] was 26.4 µM (inactive) and the GI50 [20] was 27 µM (inactive).

COc1ccc2c(c1)CN([C@@H](C)[C@H]1CC[C@H]3[C@@H]4CC[C@H]5C[C@@H](O)CC[C@]5(C)[C@H]4CC[C@]13C)CO2 was tested, and the GI50 [1] was 1.3 µM (inactive), the GI50 [2] was 1.88 µM (inactive) and the GI50 [3] was 4.75 µM (inactive). For the same molecule, the GI50 [4] was 1.85 µM (inactive), the GI50 [5] was 2 µM (inactive) and the GI50 [6] was 4.68 µM (inactive). The GI50 [7] was 3.36 µM (inactive), the GI50 [8] was 1.61 µM (inactive) and the GI50 [9] was 2.47 µM (inactive). The GI50 [10] was 0.964 µM (active), the GI50 [11] was 0.787 µM (active) and the GI50 [12] was 3.7 µM (inactive). For the same molecule, the GI50 [13] was 1.53 µM (inactive), the GI50 [14] was 4.05 µM (inactive) and the GI50 [15] was 3.13 µM (inactive). The GI50 [16] was 2.26 µM (inactive), the GI50 [17] was 1.96 µM (inactive) and the GI50 [18] was 2.37 µM (inactive). For the same molecule, the GI50 [19] was 2.79 µM (inactive) and the GI50 [20] was 2.2 µM (inactive).
